# Experiments:
# [1] = tested on: 5-HT2A receptors; details: cited from earlier work
# [2] = biological target: MAO-A; details: ref Maschauer et al., 2015; read-out: KD in vitro; cited from earlier work
# [3] = biological target: T1, MAO-A (Rattus norvegicus, UniProt P21396); design: method as in Maschauer et al., 2015; details: ref Maschauer et al., 2015; read-out: Apparent affinity (KD) at MAO-binding sites in living rat brain; cited from earlier work
# T1 sequence (P21396 1-526): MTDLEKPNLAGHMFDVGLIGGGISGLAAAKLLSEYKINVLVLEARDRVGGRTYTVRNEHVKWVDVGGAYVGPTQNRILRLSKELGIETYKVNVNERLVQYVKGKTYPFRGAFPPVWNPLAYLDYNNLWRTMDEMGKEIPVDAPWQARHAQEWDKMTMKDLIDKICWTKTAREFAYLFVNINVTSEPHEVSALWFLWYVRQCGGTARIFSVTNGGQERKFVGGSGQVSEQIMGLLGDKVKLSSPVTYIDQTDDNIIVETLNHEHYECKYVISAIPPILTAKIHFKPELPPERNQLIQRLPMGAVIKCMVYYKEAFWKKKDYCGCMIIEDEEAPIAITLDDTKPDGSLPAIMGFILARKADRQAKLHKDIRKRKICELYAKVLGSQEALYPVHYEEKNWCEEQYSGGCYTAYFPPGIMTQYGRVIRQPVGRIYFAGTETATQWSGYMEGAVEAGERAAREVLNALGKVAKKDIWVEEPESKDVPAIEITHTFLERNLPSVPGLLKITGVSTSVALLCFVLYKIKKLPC
# [4] = biological target: T1, MAO-A; assay: Apparent affinity at MAO binding sites in living brain; format: in vivo; details: from values of ref Maschauer et al., 2015
# [5] = Brain concentrations of harmine, DMT and metabolites by UHPLC-MS after s.c. harmine and/or DMT; details: for concentration at 95 min / concentration at 65 min: rat, subcutaneous
# Procedure: Groups of (n = 6) rats received either saline, harmine (1 mg/kg), DMT (1 mg/kg), or harmine + DMT (1 mg/kg each) as subcutaneous injections, as indicated in Figure 1.
# After 45 min, rats were sacrificed by decapitation, and the brains dissected into cerebellum and frontal cortex samples for radioactivity measurement and chemical analysis, thus 65 min after harmine + DMT.
# [6] = Exp 1, group DMT, average of regions
# [7] = Exp 1, group Har + DMT, average of regions
# [8] = Exp 1, group Har + DMT, cerebellum
# [9] = Exp 1, group Har + DMT, front cort
# [10] = Exp 2, group Har + DMT, average of regions
# [11] = Exp 2, group Har + DMT, cerebellum
# [12] = Exp 2, group Har + DMT, front cort
smiles,measurement,setting,value
CN(C)CCc1c[nH]c2cccc(OP(=O)(O)O)c12 [psilocybin],Occupancy at 5-HT2A receptors,"[1]; PET with [^11C]Cimbi-36, ref Madsen et al., 2019",≤ 70%
same,Occupancy at 5-HT2A receptors in human frontal cortex,"[1]; PET with [^18F]altanserin, ref Hasler et al., 2009a",≤ 35%
Cc1nccc2c1[nH]c1cc(OCCF)ccc12 [[^18F]fluoroethyl-harmol],Kd,[2],2 nM
same,Kd,[3],300 nM
Cc1nccc2c1[nH]c1cc(OCC[18F])ccc12 [[^18F]fluoroethyl-harmol],In vitro/in vivo affinity difference,[4],150 fold
"O=C(O)Cc1c[nH]c2ccccc12 [3-IAA, indole-3-acetic acid]",Percentage of total molar concentration of DMT and metabolites,[5]; [6],97.5%
same,Percentage of total molar concentration of DMT and metabolites,"[5]; Exp 1, group DMT, cerebellum",97.9%
same,Percentage of total molar concentration of DMT and metabolites,"[5]; Exp 1, group DMT, front cort",97.3%
same,Percentage of total molar concentration of DMT and metabolites,[5]; [7],64.7%
same,Percentage of total molar concentration of DMT and metabolites,[5]; [8],65.3%
same,Percentage of total molar concentration of DMT and metabolites,[5]; [9],64.2%
same,Percentage of total molar concentration of DMT and metabolites,[5]; [10],25.9%
same,Percentage of total molar concentration of DMT and metabolites,[5]; [11],27.5%
same,Percentage of total molar concentration of DMT and metabolites,[5]; [12],24.7%
same,Brain concentration,"[5]; Experiment 1, cerebellum, group DMT (1 mg/kg s.c.), 95 min, mean (SD)",398.5 (128.3) ng/g
same,Brain concentration,"[5]; Experiment 1, cerebellum, group Har + DMT (1 mg/kg each s.c.), 95 min, mean (SD)",194.1 (117.2) ng/g
same,Brain concentration,"[5]; Experiment 1, frontal cortex, group DMT (1 mg/kg s.c.), 95 min, mean (SD)",503.9 (137.7) ng/g
same,Brain concentration,"[5]; Experiment 1, frontal cortex, group Har + DMT (1 mg/kg each s.c.), 95 min, mean (SD)",257.5 (103.6) ng/g
same,Lower cerebral 3-IAA concentration after co-administration of harmine and DMT,"[5]; Experiment 1, versus DMT alone",50%
same,Brain concentration,"[5]; Experiment 2, cerebellum, group Har + DMT (3 mg/kg each s.c.), 65 min, mean (SD)",530.7 (129.8) ng/g
same,Brain concentration,"[5]; Experiment 2, frontal cortex, group Har + DMT (3 mg/kg each s.c.), 65 min, mean (SD)",652.1 (186.5) ng/g
same,concentration at 95 min,"[5]; brain (average of frontal cortex and cerebellum), 1 mg/kg, Molar concentration, Exp 1, group DMT, average of regions",2580 nM
same,concentration at 95 min,"[5]; brain (average of frontal cortex and cerebellum), Molar concentration, Exp 1, group Har + DMT, average of regions",1290 nM
same,concentration at 65 min,"[5]; brain (average of frontal cortex and cerebellum), Molar concentration, Exp 2, group Har + DMT, average of regions",3380 nM
same,concentration at 95 min,"[5]; cerebellum, 1 mg/kg, Brain concentration, Experiment 1, cerebellum, after DMT alone (1 mg/kg)",2300 nM
same,concentration at 95 min,"[5]; cerebellum, 1 mg/kg, Brain concentration, Experiment 1, cerebellum, group DMT (1 mg/kg s.c.), 95 min, mean (SD)",398 ng/g
same,concentration at 95 min,"[5]; cerebellum, 1 mg/kg, Molar concentration, Exp 1, group DMT, cerebellum",2270 nM
same,concentration at 95 min,"[5]; cerebellum, Brain concentration, Experiment 1, cerebellum, after harmine + DMT (1 mg/kg each)",1100 nM
same,concentration at 95 min,"[5]; cerebellum, Brain concentration, Experiment 1, cerebellum, group Har (harmine 1 mg/kg s.c.), 95 min after drug, mean (SD)",11.1 ng/g
same,concentration at 95 min,"[5]; cerebellum, Brain concentration, Experiment 1, cerebellum, group Har + DMT (1 mg/kg each s.c.), 95 min, mean (SD)",194 ng/g
same,concentration at 65 min,"[5]; cerebellum, Brain concentration, Experiment 2, cerebellum, after harmine + DMT (3 mg/kg each)",3000 nM
same,concentration at 65 min,"[5]; cerebellum, Brain concentration, Experiment 2, cerebellum, group Har + DMT (3 mg/kg each s.c.), 65 min, mean (SD)",531 ng/g
same,concentration at 95 min,"[5]; cerebellum, Molar concentration, Exp 1, group Har + DMT, cerebellum",1110 nM
same,concentration at 65 min,"[5]; cerebellum, Molar concentration, Exp 2, group Har + DMT, cerebellum",3030 nM
same,concentration at 95 min,"[5]; frontal cortex, 1 mg/kg, Brain concentration, Experiment 1, frontal cortex, after DMT alone (1 mg/kg)",2900 nM
same,concentration at 95 min,"[5]; frontal cortex, 1 mg/kg, Brain concentration, Experiment 1, frontal cortex, group DMT (1 mg/kg s.c.), 95 min, mean (SD)",504 ng/g
same,concentration at 95 min,"[5]; frontal cortex, 1 mg/kg, Molar concentration, Exp 1, group DMT, front cort",2880 nM
same,concentration at 95 min,"[5]; frontal cortex, Brain concentration, Experiment 1, frontal cortex, after harmine + DMT (1 mg/kg each), 95 min",1500 nM
same,concentration at 95 min,"[5]; frontal cortex, Brain concentration, Experiment 1, frontal cortex, group Har (harmine 1 mg/kg s.c.), 95 min, mean (SD)",14.1 ng/g
same,concentration at 95 min,"[5]; frontal cortex, Brain concentration, Experiment 1, frontal cortex, group Har + DMT (1 mg/kg each s.c.), 95 min, mean (SD)",258 ng/g
same,concentration at 65 min,"[5]; frontal cortex, Brain concentration, Experiment 2, frontal cortex, after harmine + DMT (3 mg/kg each), 65 min",3700 nM
same,concentration at 65 min,"[5]; frontal cortex, Brain concentration, Experiment 2, frontal cortex, group Har + DMT (3 mg/kg each s.c.), 65 min, mean (SD)",652 ng/g
same,concentration at 95 min,"[5]; frontal cortex, Molar concentration, Exp 1, group Har + DMT, front cort",1470 nM
same,concentration at 65 min,"[5]; frontal cortex, Molar concentration, Exp 2, group Har + DMT, front cort",3720 nM
"C[N+](C)([O-])CCc1c[nH]c2ccccc12 [DMT-N-Oxide, DMT-N-oxide]",Molar concentration,[5]; [6],3.29 nmol/L
same,Percentage of total molar concentration of DMT and metabolites,[5]; [6],0.1%
same,Molar concentration,"[5]; Exp 1, group DMT, cerebellum",3.16 nmol/L
same,Percentage of total molar concentration of DMT and metabolites,"[5]; Exp 1, group DMT, cerebellum",0.1%
same,Molar concentration,"[5]; Exp 1, group DMT, front cort",3.43 nmol/L
same,Percentage of total molar concentration of DMT and metabolites,"[5]; Exp 1, group DMT, front cort",0.1%
same,Molar concentration,[5]; [7],27.52 nmol/L
same,Percentage of total molar concentration of DMT and metabolites,[5]; [7],1.4%
same,Molar concentration,[5]; [8],30.49 nmol/L
same,Percentage of total molar concentration of DMT and metabolites,[5]; [8],1.8%
same,Molar concentration,[5]; [9],24.54 nmol/L
same,Percentage of total molar concentration of DMT and metabolites,[5]; [9],1.1%
same,Molar concentration,[5]; [10],90.73 nmol/L
same,Percentage of total molar concentration of DMT and metabolites,[5]; [10],0.7%
same,Molar concentration,[5]; [11],131.9 nmol/L
same,Percentage of total molar concentration of DMT and metabolites,[5]; [11],1.2%
same,Molar concentration,[5]; [12],49.57 nmol/L
same,Percentage of total molar concentration of DMT and metabolites,[5]; [12],0.3%

# — publication PMC10568461, “A pilot study of cerebral metabolism and serotonin 5-HT2A receptor occupancy in rats treated with the psychedelic tryptamine DMT in conjunction with the MAO inhibitor harmine” (Frontiers in Pharmacology, 2023)
